Measurements from patent US20260250318A1, “COMPOSITIONS AND METHODS FOR CROSSING THE BLOOD BRAIN BARRIER” (VOYAGER THERAPEUTICS, INC., priority 2022, published 2026).

Assays:
Conditions in all cases: synthetic library passage 3, intravenous, relative to wild-type AAV9
[1] = test system: brain, spinal cord, and DRG of the NHPs; experiment: NGS fold enrichment of synthetic library (passage 3) in NHPs, first cross-species screen; type: in vivo, cynomolgus macaques (Macaca fascicularis)
In short: (§1)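 Synthetic capsid library (passage 3) was given intravenously […] to NHPs aged 2-4 years and to BALB/c and C57Bl/6 mice (n=3 each, 6-8 weeks). After about 28 days in vivo, tissue RNA was RT-PCR amplified and NGS-sequenced; values are fold enrichment per variant relative to wild-type AAV9.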

brain [2] = experiment: NGS fold enrichment of synthetic library (passage 3) in BALB/c mice, first cross-species screen; type: in vivo
In short: as §1

brain [3] = experiment: NGS fold enrichment of synthetic library (passage 3) in C57Bl/6 mice, first cross-species screen; type: in vivo
In short: as §1

[4] = RNA from spinal cord of NHPs, NGS
[5] = RNA from brain of BALB/c mice, NGS
[6] = RNA from brain of C57Bl/6 mice, NGS

Sequence | Fold enrichment over AAV9 in the brain of NHPs ([1]; RNA from brain of NHPs, NGS) [fold] | Fold enrichment over AAV9 in the spinal cord of NHPs [1, 4] [fold] | Fold enrichment over AAV9 in the brain of Mice (BALB/c) (brain [2]; [5]) [fold] | Fold enrichment over AAV9 in the brain of Mice (C57Bl/6) (brain [3]; [6]) [fold] | Fold enrichment over AAV9 in the brain of NHPs ([1]; RNA NGS, brain of NHPs) [fold] | Fold enrichment over AAV9 in the spinal cord of NHPs ([1]; RNA NGS, spinal cord of NHPs) [fold] | Fold enrichment over AAV9 in the brain of Mice (BALB/c) (brain [2]; RNA NGS, brain of BALB/c mice) [fold] | Fold enrichment over AAV9 in the brain of Mice (C57Bl/6) (brain [3]; RNA NGS, brain of C57Bl/6 mice) [fold]
GSGVSTQLLQNQQT | 1.367 | 2.467 | 0.509 | 0.928 | – | – | – | –
GSGVSTYNIQNQQT | – | – | – | – | 3.609 | 2.912 | 0.520 | 0.769
GSGYASHVQQNQQT | – | – | – | – | 2.146 | 3.038 | 0.758 | 1.157
GSGYKAARPQNQQT | – | – | – | – | 1.803 | 0.000 | 0.337 | 1.418
GSGYKDTYGQNQQT | – | – | – | – | 1.091 | 0.854 | 0.448 | 0.717
GSGYLRESPQNQQT | – | – | – | – | 2.311 | 0.878 | 0.677 | 0.331
GSGYNQPHLQNQQT | – | – | – | – | 1.435 | 4.512 | 0.395 | 0.711
GSGYSMSQAQNQQT | – | – | – | – | 2.250 | 4.479 | 0.329 | 0.519
GSGYTSLFLQNQQT | – | – | – | – | 2.710 | 0.010 | 1.044 | 0.490
GSGYVITGSQNQQT | 1.125 | 6.271 | 0.248 | 0.971 | – | – | – | –
GSHGHYASGQKQQT | – | – | – | – | 2.016 | 0.000 | 0.685 | 0.895
GSHSQSGHGQNQQT | – | – | – | – | 1.413 | 1.240 | 0.318 | 0.696
GSHTLVVSGQNQQT | – | – | – | – | 1.069 | 1.535 | 0.748 | 0.671
GSIAHVGTGQNQQT | – | – | – | – | 1.696 | 1.264 | 1.045 | 0.837
GSIAMTSHGQNQQT | 1.178 | 1.435 | 0.438 | 0.551 | – | – | – | –
GSIGYAGQGQNQQT | – | – | – | – | 2.157 | 4.951 | 0.712 | 1.604

Sequence | Fold enrichment over AAV9 in the brain of NHPs ([1]; RNA from brain of NHPs, NGS) [fold] | Fold enrichment over AAV9 in the spinal cord of NHPs [1, 4] [fold] | Fold enrichment over AAV9 in the brain of Mice (BALB/c) (brain [2]; [5]) [fold] | Fold enrichment over AAV9 in the brain of Mice (C57Bl/6) (brain [3]; [6]) [fold] | Fold enrichment over AAV9 in the brain of NHPs ([1]; RNA NGS, brain of NHPs) [fold] | Fold enrichment over AAV9 in the spinal cord of NHPs ([1]; RNA NGS, spinal cord of NHPs) [fold] | Fold enrichment over AAV9 in the brain of Mice (BALB/c) (brain [2]; RNA NGS, brain of BALB/c mice) [fold] | Fold enrichment over AAV9 in the brain of Mice (C57Bl/6) (brain [3]; RNA NGS, brain of C57Bl/6 mice) [fold]
GSIQYQSSGQNQQT | 1.147 | 2.601 | 1.191 | 1.074 | – | – | – | –
GSITLIPSGQNQQT | – | – | – | – | 3.361 | 3.917 | 0.435 | 0.326
GSKGVPTPGQNQQT | – | – | – | – | 2.625 | 1.292 | 0.459 | 1.452
GSLDLGRSGQNQQT | 1.160 | 3.283 | 0.505 | 1.002 | – | – | – | –
GSLFLATGGQNQQT | 1.220 | 0.000 | 0.485 | 0.775 | – | – | – | –
GSLGNLQRGQNQQT | – | – | – | – | 1.003 | 0.895 | 0.385 | 0.947
GSLHAGLSGQNQQT | 1.408 | 1.739 | 0.936 | 1.286 | – | – | – | –
GSLHHDNHGQNQQT | – | – | – | – | 1.976 | 0.980 | 0.463 | 0.968
GSLIGMQSGQNQQT | – | – | – | – | 1.656 | 6.783 | 0.392 | 0.797
GSLKPTTLGQNQQT | – | – | – | – | 1.840 | 0.476 | 0.220 | 0.175
GSLLISTSGQNQQT | – | – | – | – | 1.919 | 5.763 | 0.808 | 1.488
GSLLQAHSGQNQQT | – | – | – | – | 2.182 | 1.008 | 0.748 | 0.575
GSLLSAGMGQNQHT | – | – | – | – | 1.856 | 6.168 | 0.342 | 0.589
GSLLTTASGQNQQT | – | – | – | – | 1.822 | 0.780 | 0.635 | 0.938
GSLMDVHRGQNQQT | 1.150 | 0.387 | 0.238 | 1.009 | – | – | – | –
